Patent US12310975B2, “Modulators of BCL6 proteolysis and associated methods of use” (Arvinas Operations, Inc., priority 2019, dated 2025)

Target: BCL6 (Homo sapiens (Human), UniProt P41182)
Assay: Immunofluorescence high content imaging of BCL6 degradation in T47D cells
Type: cell-based
Settings: for DC50: class symbols A-D, read-out: EC50 (nM)*; for Dmax: T47D
Procedure, shortened: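 T47D cells were treated 3 days at 37 °C with an 11-point 3-fold dilution series (top 0.1 or 1 μM), then fixed, permeabilized and immunostained for BCL6 with Alexa-488 secondary, CellMask and Hoechst. BCL6 signal was imaged at 10×, 4 fields/well, with top-hat smoothing.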

Compound	DC50 [nM]	IC50 [nM]	Dmax [%]
CNC(=O)COc1cc2cc(Nc3nc(N4CCC(OCc5ccccc5OCCCCOCCOCCOc5ccc6c(c5)CN(C5CCC(=O)NC5=O)C6=O)CC4)ncc3Cl)ccc2n(C)c1=O (centres unmarked) [compound 136, 2-((6-((5-chloro-2-(4-((2-(4-(2-(2-((2-(2,6-dioxopiperidin-3-yl)-1-oxoisoindolin-5-yl)oxy)ethoxy)ethoxy)butoxy)benzyl)oxy)piperidin-1-yl)pyrimidin-4-yl)amino)-1-methyl-2-oxo-1,2-dihydroquinolin-3-yl)oxy)-N-methylacetamide]	> 100	–	–
CNC(=O)COc1cc2cc(Nc3nc(N4CCC(OCCCOc5ccc6c(c5)CN(C5CCC(=O)NC5=O)C6=O)CC4)ncc3Cl)ccc2n(C)c1=O (centres unmarked) [compound 139, 2-((6-((5-chloro-2-(4-(3-((2-(2,6-dioxopiperidin-3-yl)-1-oxoisoindolin-5-yl)oxy)propoxy)piperidin-1-yl)pyrimidin-4-yl)amino)-1-methyl-2-oxo-1,2-dihydroquinolin-3-yl)oxy)-N-methylacetamide]	50 to 100	–	–
CNC(=O)COc1cc2cc(Nc3nc(N4CCC(OCCCOCCCOc5ccc6c(c5)CN(C5CCC(=O)NC5=O)C6=O)CC4)ncc3Cl)ccc2n(C)c1=O (centres unmarked) [compound 140, 2-((6-((5-chloro-2-(4-(3-(3-((2-(2,6-dioxopiperidin-3-yl)-1-oxoisoindolin-5-yl)oxy)propoxy)propoxy)piperidin-1-yl)pyrimidin-4-yl)amino)-1-methyl-2-oxo-1,2-dihydroquinolin-3-yl)oxy)-N-methylacetamide]	> 100	–	–
CNC(=O)COc1cc2cc(Nc3nc(N4CCC(OCCCOc5cc(-c6scnc6C)ccc5CNC(=O)[C@@H]5C[C@@H](O)CN5C(=O)C(c5cc(C)no5)C(C)C)CC4)ncc3Cl)ccc2n(C)c1=O (stereo partly drawn) [compound 141, (2S,4R)-N-(2-(3-((1-(5-chloro-4-((1-methyl-3-(2-(methylamino)-2-oxoethoxy)-2-oxo-1,2-dihydroquinolin-6-yl)amino)pyrimidin-2-yl)piperidin-4-yl)oxy)propoxy)-4-(4-methylthiazol-5-yl)benzyl)-4-hydroxy-1-(3-methyl-2-(3-methylisoxazol-5-yl)butanoyl)pyrrolidine-2-carboxamide]	> 100	–	–
CNC(=O)COc1cc2cc(Nc3nc(N4CCC(OCCCCOc5ccc6c(c5)CN(C5CCC(=O)NC5=O)C6=O)CC4)ncc3Cl)ccc2n(C)c1=O (centres unmarked) [compound 142, 2-((6-((5-chloro-2-(4-(4-((2-(2,6-dioxopiperidin-3-yl)-1-oxoisoindolin-5-yl)oxy)butoxy)piperidin-1-yl)pyrimidin-4-yl)amino)-1-methyl-2-oxo-1,2-dihydroquinolin-3-yl)oxy)-N-methylacetamide]	> 100	–	–
CNC(=O)COc1cc2cc(Nc3nc(N4CCC(OCCN5CCC(N6CCC(OCC#Cc7ccc8c(c7)CN(C7CCC(=O)NC7=O)C8=O)CC6)CC5)CC4)ncc3Cl)ccc2n(C)c1=O (centres unmarked) [compound 143, 2-((6-((5-chloro-2-(4-(2-(4-((3-(2-(2,6-dioxopiperidin-3-yl)-1-oxoisoindolin-5-yl)prop-2-yn-1-yl)oxy)-[1,4′-bipiperidin]-1′-yl)ethoxy)piperidin-1-yl)pyrimidin-4-yl)amino)-1-methyl-2-oxo-1,2-dihydroquinolin-3-yl)oxy)-N-methylacetamide]	10 to 50	–	–
CNC(=O)COc1cc2cc(Nc3nc(N4CCC(OCCCOCCCOc5cc(-c6scnc6C)ccc5CNC(=O)[C@@H]5C[C@@H](O)CN5C(=O)C(c5cc(C)no5)C(C)C)CC4)ncc3Cl)ccc2n(C)c1=O (stereo partly drawn) [compound 144, (2S,4R)-N-(2-(3-(3-((1-(5-chloro-4-((1-methyl-3-(2-(methylamino)-2-oxoethoxy)-2-oxo-1,2-dihydroquinolin-6-yl)amino)pyrimidin-2-yl)piperidin-4-yl)oxy)propoxy)propoxy)-4-(4-methylthiazol-5-yl)benzyl)-4-hydroxy-1-(3-methyl-2-(3-methylisoxazol-5-yl)butanoyl)pyrrolidine-2-carboxamide]	> 100	–	–
CNC(=O)COc1cc2cc(Nc3nc(N4CCC(OCCOCCOCCCOCCCOc5ccc6c(c5)CN(C5CCC(=O)NC5=O)C6=O)CC4)ncc3Cl)ccc2n(C)c1=O (centres unmarked) [compound 145, 2-((6-((5-chloro-2-(4-(2-(2-(3-(3-((2-(2,6-dioxopiperidin-3-yl)-1-oxoisoindolin-5-yl)oxy)propoxy)propoxy)ethoxy)ethoxy)piperidin-1-yl)pyrimidin-4-yl)amino)-1-methyl-2-oxo-1,2-dihydroquinolin-3-yl)oxy)-N-methylacetamide]	50 to 100	–	–
CNC(=O)COc1cc2cc(Nc3nc(N4CCC(OCCOCCOCCCOc5ccc6c(c5)CN(C5CCC(=O)NC5=O)C6=O)CC4)ncc3Cl)ccc2n(C)c1=O (centres unmarked) [compound 146, 2-((6-((5-chloro-2-(4-(2-(2-(3-((2-(2,6-dioxopiperidin-3-yl)-1-oxoisoindolin-5-yl)oxy)propoxy)ethoxy)ethoxy)piperidin-1-yl)pyrimidin-4-yl)amino)-1-methyl-2-oxo-1,2-dihydroquinolin-3-yl)oxy)-N-methylacetamide]	> 100	–	–
CNC(=O)COc1cc2cc(Nc3nc(N4CCC(OCCOCCCOCCCOc5ccc6c(c5)CN(C5CCC(=O)NC5=O)C6=O)CC4)ncc3Cl)ccc2n(C)c1=O (centres unmarked) [compound 147, 2-((6-((5-chloro-2-(4-(2-(3-(3-((2-(2,6-dioxopiperidin-3-yl)-1-oxoisoindolin-5-yl)oxy)propoxy)propoxy)ethoxy)piperidin-1-yl)pyrimidin-4-yl)amino)-1-methyl-2-oxo-1,2-dihydroquinolin-3-yl)oxy)-N-methylacetamide]	> 100	–	–
CC(=O)COc1cc2cc(Nc3nc(N4CCC(N5CCC(Oc6ccc7c(c6)C(=O)N(C6CCC(=O)NC6=O)C7=O)C5)CC4)ncc3Cl)ccc2n(C)c1=O (centres unmarked) [compound 177, 5-((1-(1-(5-chloro-4-((1-methyl-2-oxo-3-(2-oxopropoxy)-1,2-dihydroquinolin-6-yl)amino)pyrimidin-2-yl)piperidin-4-yl)pyrrolidin-3-yl)oxy)-2-(2,6-dioxopiperidin-3-yl)isoindoline-1,3-dione]	–	≥ 100	< 50
CC(=O)COc1cc2cc(Nc3nc(N4CCC(OC5CN(c6ccc7c(c6)C(=O)N(C6CCC(=O)NC6=O)C7=O)C5)CC4)ncc3Cl)ccc2n(C)c1=O (centres unmarked) [compound 178, 5-(3-((1-(5-chloro-4-((1-methyl-2-oxo-3-(2-oxopropoxy)-1,2-dihydroquinolin-6-yl)amino)pyrimidin-2-yl)piperidin-4-yl)oxy)azetidin-1-yl)-2-(2,6-dioxopiperidin-3-yl)isoindoline-1,3-dione]	–	10 to 50	< 50
CC(=O)COc1cc2cc(Nc3nc(N4CCOC(COc5ccc6c(c5)C(=O)N(C5CCC(=O)NC5=O)C6=O)C4)ncc3Cl)ccc2n(C)c1=O (centres unmarked) [compound 179, 5-((4-(5-chloro-4-((1-methyl-2-oxo-3-(2-oxopropoxy)-1,2-dihydroquinolin-6-yl)amino)pyrimidin-2-yl)morpholin-2-yl)methoxy)-2-(2,6-dioxopiperidin-3-yl)isoindoline-1,3-dione]	–	≥ 100	50 to 70
CC(=O)COc1cc2cc(Nc3nc(N4CCC(OCCOC5CCN(c6ccc7c(c6)C(=O)N(C6CCC(=O)NC6=O)C7=O)CC5)C4)ncc3Cl)ccc2n(C)c1=O (centres unmarked) [compound 180, 5-(4-(2-((1-(5-chloro-4-((1-methyl-2-oxo-3-(2-oxopropoxy)-1,2-dihydroquinolin-6-yl)amino)pyrimidin-2-yl)pyrrolidin-3-yl)oxy)ethoxy)piperidin-1-yl)-2-(2,6-dioxopiperidin-3-yl)isoindoline-1,3-dione]	–	≥ 100	–
